Target: hCereblon(M1-L442)_hDDB1(M1-H1140) (Homo sapiens (Human), UniProt Q96SW2)
Assay: Fluorescence direct binding protocol (tryptophan fluorescence titration)
Settings: fluorescence titration at 20° C., excited at 280 nm, recorded at 340 nm; protein 5.0 E−8 M; assay buffer 50 mM Hepes 7.4 200 mM NaCl; read-out: Fluorescence h-Cereblon_DDB1 Mean Kd_EQ
Method: Fluorescence Direct Binding Protocol
Determination of the affinities of compounds to protein containing one or more tryptophan is measurable by monitoring the fluorescence emission in direct mode. The measurements depending on the protein available amounts are performed either manually in a cuvette on ISS-PC1 photon counting spectrofluorometer or automatically in well plates on a fluorescence plate reader device. Fluorescence titrations are performed at 20° C. in the chosen binding assay buffer by using a defined constant protein concentration against ligand concentration variations. Small aliquots of known ligand concentration solubilized in DMSO were added and the fluorescence, excited at 280 nm, was recorded at 340 nm. The fluorescence intensity was corrected for protein dilution and for the filter effect (Birdsall et al.^69). The corrected fluorescence intensity was plotted against the ligand concentration and fitted using a four-parameter sigmoidal function, from which the equilibrium dissociation constant Kd was computed using the law of mass action assuming a 1:1 protein-ligand complex (Eftink, 1997^70).
Process • 1) Optimization of measurement parameters to minimize protein consumption and to minimize the dilution effect and the DMSO content • 2) Titration measurements of the protein against ligand by at least 12 titration steps to obtain a good s-curve fit • 3) Repeat the same titration measurements with the ligand alone to enable correction • 4) Check the stability of the protein once by titration against DMSO alone • 5) Determination of the molar extinction coefficients of the ligand at 280 and 340 nm with help of an UV-spectrophotometer • 6) Use Excel template for the correction of the measured raw data • 7) Use GraphPad Prism software for the quadratic binding fit and the KD evaluation.

Sequence of hCereblon(M1-L442)_hDDB1(M1-H1140) (Q96SW2 whole entry): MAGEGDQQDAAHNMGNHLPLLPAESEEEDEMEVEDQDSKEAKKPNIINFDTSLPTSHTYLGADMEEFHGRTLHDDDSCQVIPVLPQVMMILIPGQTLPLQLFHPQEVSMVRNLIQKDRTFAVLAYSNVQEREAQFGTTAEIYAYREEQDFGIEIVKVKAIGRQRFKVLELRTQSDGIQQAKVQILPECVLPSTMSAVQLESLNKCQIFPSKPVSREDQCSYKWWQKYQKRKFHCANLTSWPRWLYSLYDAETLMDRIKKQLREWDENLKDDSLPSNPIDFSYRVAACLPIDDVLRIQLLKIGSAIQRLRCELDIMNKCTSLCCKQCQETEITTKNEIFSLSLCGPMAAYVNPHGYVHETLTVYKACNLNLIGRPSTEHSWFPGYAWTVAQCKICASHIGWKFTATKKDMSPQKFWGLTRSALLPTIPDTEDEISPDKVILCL
Sequence of hCereblon(M1-L442)_hDDB1(M1-H1140) (Q16531 whole entry partner): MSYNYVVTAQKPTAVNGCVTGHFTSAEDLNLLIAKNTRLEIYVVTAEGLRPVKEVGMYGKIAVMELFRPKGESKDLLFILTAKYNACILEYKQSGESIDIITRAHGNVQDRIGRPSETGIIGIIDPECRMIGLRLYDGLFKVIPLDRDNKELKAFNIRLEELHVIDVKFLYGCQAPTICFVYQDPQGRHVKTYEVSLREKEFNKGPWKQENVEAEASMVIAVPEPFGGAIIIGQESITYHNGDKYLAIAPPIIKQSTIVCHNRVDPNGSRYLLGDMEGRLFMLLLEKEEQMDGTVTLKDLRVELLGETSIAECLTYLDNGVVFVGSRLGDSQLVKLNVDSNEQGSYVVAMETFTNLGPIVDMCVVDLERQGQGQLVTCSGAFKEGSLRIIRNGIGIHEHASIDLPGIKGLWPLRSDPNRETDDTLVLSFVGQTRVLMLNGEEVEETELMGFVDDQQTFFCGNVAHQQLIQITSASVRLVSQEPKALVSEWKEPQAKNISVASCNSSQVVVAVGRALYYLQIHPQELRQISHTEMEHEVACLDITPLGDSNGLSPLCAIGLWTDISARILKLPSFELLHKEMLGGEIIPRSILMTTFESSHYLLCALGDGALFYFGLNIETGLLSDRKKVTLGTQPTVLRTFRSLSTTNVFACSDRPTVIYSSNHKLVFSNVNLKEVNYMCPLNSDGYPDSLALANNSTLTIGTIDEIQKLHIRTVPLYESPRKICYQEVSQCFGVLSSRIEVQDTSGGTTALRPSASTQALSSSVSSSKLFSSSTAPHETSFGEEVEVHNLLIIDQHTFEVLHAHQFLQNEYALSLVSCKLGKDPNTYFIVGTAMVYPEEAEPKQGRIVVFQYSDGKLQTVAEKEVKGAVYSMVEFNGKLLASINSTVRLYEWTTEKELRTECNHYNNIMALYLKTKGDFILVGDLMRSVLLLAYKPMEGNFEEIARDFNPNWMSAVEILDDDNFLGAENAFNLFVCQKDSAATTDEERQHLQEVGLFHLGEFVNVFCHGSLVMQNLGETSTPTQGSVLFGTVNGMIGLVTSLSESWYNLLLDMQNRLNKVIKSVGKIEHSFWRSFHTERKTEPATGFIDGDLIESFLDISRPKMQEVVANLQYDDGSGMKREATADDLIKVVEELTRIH

Compound	Kd [nM]
CNC(=O)c1ccc(Nc2ccc3[nH]c(=O)[nH]c3c2)c(N)c1 [Example 1, 3-Amino-N-methyl-4-[(2-oxo-1,3-dihydrobenzimidazol-5-yl)amino]benzamide]	587
CNC(=O)c1ccc2c(c1)nc(-c1cc(-c3cncn3C)nc3ccccc13)n2-c1ccc2[nH]c(=O)[nH]c2c1 [Example 2, N-Methyl-2-(2-(1-methyl-1H-imidazol-5-yl)quinolin-4-yl)-2′-oxo-2′,3′-dihydro-1′H-[1,5′-bibenzo[d]imidazole]-5-carboxamide]	28
CNC(=O)c1ccc2c(c1)nc(-c1ccnc3ccccc13)n2-c1ccc2[nH]c(=O)[nH]c2c1 [Example 3, N-Methyl-2′-oxo-2-(quinolin-4-yl)-2′,3′-dihydro-1′H-[1,5′-bibenzo[d]imidazole]-5-carboxamide]	39
CCc1nc2cc(C(=O)NC)ccc2n1-c1ccc2[nH]c(=O)[nH]c2c1 [Example 4, 2-Ethyl-N-methyl-2′-oxo-2′,3′-dihydro-1′H-[1,5′-bibenzo[d]imidazole]-5-carboxamide]	36
CNC(=O)c1ccc2c(c1)nc(C)n2-c1ccc2[nH]c(=O)[nH]c2c1 [Example 5, N,2-Dimethyl-2′-oxo-2′,3′-dihydro-1′H-[1,5′-bibenzo[d]imidazole]-5-carboxamide]	180
Nc1ccccc1Nc1ccc2[nH]c(=O)[nH]c2c1 [Example 6, 5-((2-Aminophenyl)amino)-1H-benzo[d]imidazol-2(3H)-one]	54
O=c1[nH]c2ccc(-n3c(-c4ccnc5ccccc45)nc4ccccc43)cc2[nH]1 [Example 7, 2-(Quinolin-4-yl)-1′H-[1,5′-bibenzo[d]imidazol]-2′(3′H)-one]	27
Cn1cncc1-c1cc(-c2nc3ccccc3n2-c2ccc3[nH]c(=O)[nH]c3c2)c2ccccc2n1 [Example 8, 2-(2-(1-Methyl-1H-imidazol-5-yl)quinolin-4-yl)-1′H-[1,5′-bibenzo[d]imidazol]-2′(3′H)-one]	6
COC(=O)c1ccc(Nc2ccc3[nH]c(=O)[nH]c3c2)c(N)c1 [Example 9, Methyl 3-amino-4-((2-oxo-2,3-dihydro-1H-benzo[d]imidazol-5-yl)amino)benzoate]	29
CNC(=O)c1ccc2c(c1)nc(-c1ccccc1)n2-c1ccc2[nH]c(=O)[nH]c2c1 [Example 10, N-Methyl-2′-oxo-2-phenyl-2′,3′-dihydro-1′H-[1,5′-bibenzo[d]imidazole]-5-carboxamide]	88
CNC(=O)c1ccc2c(c1)nc(-c1ccncc1)n2-c1ccc2[nH]c(=O)[nH]c2c1 [Example 11, N-Methyl-2′-oxo-2-(pyridin-4-yl)-2′,3′-dihydro-1′H-[1,5′-bibenzo[d]imidazole]-5-carboxamide]	8
O=c1[nH]c2ccc(-n3ccnc3-c3ccnc4ccccc34)cc2[nH]1 [Example 12, 5-(2-(Quinolin-4-yl)-1H-imidazol-1-yl)-1H-benzo[d]imidazol-2(3H)-one]	1
CNC(=O)c1ccc2c(c1)nc(C(F)(F)F)n2-c1ccc2[nH]c(=O)[nH]c2c1 [Example 13, N-Methyl-2′-oxo-2-(trifluoromethyl)-2′,3′-dihydro-1′H-[1,5′-bibenzo[d]imidazole]-5-carboxamide]	7
CCCc1nc2cc(C(=O)NC)ccc2n1-c1ccc2[nH]c(=O)[nH]c2c1 [Example 14, N-Methyl-2′-oxo-2-propyl-2′,3′-dihydro-1′H-[1,5′-bibenzo[d]imidazole]-5-carboxamide]	321
CNC(=O)c1ccc2c(c1)nc(-c1cnc[nH]1)n2-c1ccc2[nH]c(=O)[nH]c2c1 [Example 15, 2-(1H-Imidazol-4-yl)-N-methyl-2′-oxo-2′,3′-dihydro-1′H-[1,5′-bibenzo[d]imidazole]-5-carboxamide]	49
CNC(=O)c1ccc2c(c1)nc(C(C)C)n2-c1ccc2[nH]c(=O)[nH]c2c1 [Example 16, 2-Isopropyl-N-methyl-2′-oxo-2′,3′-dihydro-1′H-[1,5′-bibenzo[d]imidazole]-5-carboxamide]	11
CNC(=O)c1ccc2c(c1)nc(-c1cc(-c3cncn3C)nc3ccccc13)n2-c1ccc2c(c1)n(C)c(=O)n2C [Example 17, N,1′,3′-Trimethyl-2-(2-(1-methyl-1H-imidazol-5-yl)quinolin-4-yl)-2′-oxo-2′,3′-dihydro-1′H-[1,5′-bibenzo[d]imidazole]-5-carboxamide]	42
CN(C)C(=O)c1ccc2c(c1)nc(-c1cc(-c3cncn3C)nc3ccccc13)n2-c1ccc2[nH]c(=O)[nH]c2c1 [Example 18, N,N-Dimethyl-2-(2-(1-methyl-1H-imidazol-5-yl)quinolin-4-yl)-2′-oxo-2′,3′-dihydro-1′H-[1,5′-bibenzo[d]imidazole]-5-carboxamide]	16
O=c1[nH]c2ccc(-c3cccnc3)cc2[nH]1 [Example 19, 5-(Pyridin-3-yl)-1H-benzo[d]imidazol-2(3H)-one]	7
O=c1[nH]c2ccc(-c3ccnc(Cl)c3)cc2[nH]1 [Example 20, 5-(2-Chloropyridin-4-yl)-1H-benzo[d]imidazol-2(3H)-one]	68
Cc1ncc(-c2ccc3[nH]c(=O)[nH]c3c2)s1 [Example 21, 5-(2-Methylthiazol-5-yl)-1H-benzo[d]imidazol-2(3H)-one]	5
CC(=O)N1CCN(C(=O)c2ccc3[nH]c(=O)[nH]c3c2)CC1 [Example 22, 5-(4-Acetylpiperazine-1-carbonyl)-1H-benzo[d]imidazol-2(3H)-one]	103
CC(=O)N1CCC(NC(=O)c2ccc3[nH]c(=O)[nH]c3c2)CC1 [Example 23, N-(1-Acetylpiperidin-4-yl)-2-oxo-2,3-dihydro-1H-benzo[d]imidazole-5-carboxamide]	3
O=C(c1ccc2[nH]c(=O)[nH]c2c1)N1CCc2ccccc21 [Example 24, 5-(Indoline-1-carbonyl)-1H-benzo[d]imidazol-2(3H)-one]	1
Cn1c(=O)n(C)c2cc(NC(=O)c3ccco3)ccc21 [Example 25, N-(1,3-Dimethyl-2-oxo-benzimidazol-5-yl)furan-2-carboxamide]	111
O=c1[nH]c2ccc(CCCc3ccccc3)nc2[nH]1 [Example 26, 5-(3-Phenyl-propyl)-1,3-dihydro-imidazo[4,5-b]pyridin-2-one]	41
Cn1c(=O)[nH]c2ncc(C(=O)Nc3ccccc3)cc21 [Example 27, 1-Methyl-2-oxo-N-phenyl-3H-imidazo[4,5-b]pyridine-6-carboxamide]	1
CNC(=O)c1ccc2c(c1)nc(Cc1cccc(OC)c1)n2-c1ccc2[nH]c(=O)[nH]c2c1 [Example 28, 2-(3-Methoxybenzyl)-N-methyl-2′-oxo-2′,3′-dihydro-1′H-[1,5′-bibenzo[d]imidazole]-5-carboxamide]	12
CC(=O)NC1CCN(C(=O)c2ccc3[nH]c(=O)[nH]c3c2)CC1 [Example 29, N-(1-(2-Oxo-2,3-dihydro-1H-benzo[d]imidazole-5-carbonyl)piperidin-4-yl)acetamide]	20
CNC(=O)c1ccc2nc(C(C)C)n(-c3ccc4[nH]c(=O)[nH]c4c3)c2c1 [Example 30, 2-Isopropyl-N-methyl-2′-oxo-2′,3′-dihydro-1′H-[1,5′-bibenzo[d]imidazole]-6-carboxamide]	1
